From US20200115353A1, “NEW COMPOUNDS INHIBITORS OF THE YAP/TAZ-TEAD INTERACTION AND THEIR USE IN THE TREATMENT OF MALIGNANT MESOTHELIOMA” (INVENTIVA, priority 2017, published 2020) come the findings set out here.

The target of data set [1] is T1, YAP-TEAD interaction (full length human TEAD1-Gal4 fusion, full length YAP mutant S127A, S397A) (UniProt P04386+P28347).
T1 construct: The TEAD1 construct was prepared by cloning the full length human TEAD1 cDNA; expressed in transfected cells; host or cells: HEK293 GripTite 293 MSR (Invitrogen R795-07), transiently transfected with pSG5_CMV plasmids
In words: Cell-based TEAD-GAL4 transactivation assay (luciferase reporter, HEK293). The following applies: HEK293 cells, compounds 0.1 μM to 30 μM, 24 h, concentration that inhibited the luciferase activity by 50%. As to the method: To identify inhibitors of YAP-TEAD interaction, a transient transactivation assays was carried out into HEK293 cell line (HEK293 GripTite™ 293 MSR (Invitrogen R795-07)) using plasmids containing the full length TEAD1 sequences, the full length YAP mutant (S127A, S397A) and a luciferase gene reporter. All expression constructs were performed into pSG5 backbone plasmid in which the SV40 promoter was replaced by the CMV promoter. The TEAD1 construct was prepared by cloning the full length human TEAD1 cDNA in fusion with the Gal4 DNA Binding Domain (AA 1-148) into pSG5_CMV to create the TEAD1(FL)_hum_pSG5Gal4_CMV. The full length YAP mutant (S127A, S397A) was also cloned into pSG_5 CMV to create the YAP(FL)_hum_pSG5_[…]. The reporter plasmid GAL4(5×RE)_[…]_pGL3-Basic contains 5 copies of the GAL4 responsive element (5′-TCGGAGGACAGTACTCC-3′) upstream of the thymidine kinase (TK) promoter (−105/+56) inserted in a pGL3-Basic vector. To evaluate the selectivity of our compounds in blocking the YAP-TEAD interaction, a counter-screening protein-protein interaction transactivation assays was also established. Briefly, two other expression plasmids, the pBD-P53 which express the P53 (AA 72-390) in fusion with Gal4 and the pAD-SV40T which express the SV40 large T antigen (AA 84-708,AgT), were created. HEK293 cells were seeded at 5×10^4 cells/well in 96 well plates (assay plates) in DMEM medium containing 4.5 g/L D-glucose, 10% high inactivated (HI) fetal bovine serum 1% Glutamax, 1% non-essential amino acid and 1% sodium pyruvate and 0.5% penicillin/streptomycin 37° C. in a humidified atmosphere of 8% CO2. After 24 h, transfections are performed using Jet-PEI as transfectant (101B-010 Polyplus Transfection), according to the instructions of the manufacturer (N/P=10) and a ratio YAP/TEAD=10 (per well: 50 ng of YAP(FL), 5 ng of TEAD(FL) and 50 ng of reporter plasmid). Six hours after cell transfection, the plates (‘assay plate’) were washed with 100 μl PBS per well and cell were treated with compounds in semi-log from 0.1 μM to 30 μM or DMSO 0.5% as control in DMEM 4.5 g/L D-Glucose without phenol red, 0.3% BSA, 1% glutamax, 1% NEAA, 1% sodium pyruvate. Twenty-four hours later, the luciferase activity was determined after addition of 100 μl of Steady Glo™ luciferase assay system (Promega E2550) according to the manufacturer's directions. Luciferase activity in cell extracts is measured by reading luminescence using the Envision device.
The cellular response was determined by fitting the concentration response curves using a 3-parameter curve fit equation and determining the concentration that inhibited the luciferase activity by 50%.
On the technique in general: A reporter such as luciferase makes a cellular process visible.

The test system of another data set is Met5A cell line. In words: Cell proliferation in YAP-independent cell line (EdU). The data set is classed as cell-based. The following applies: FIG. 1. As to the method:
(§1) The tumor cell growth inhibitory activity of the YAP-TEAD interaction inhibitors was evaluated in NCI-H2052 mesothelioma cell line harboring a NF2 mutation. This cell line was selected based on its mutational status and the ability of a siRNA directed against YAP, TAZ or TEAD1-4 to inhibit cell proliferation. The nuclear localization of YAP at confluence was also taken into account. Based on these observations we were able to classify several “YAP dependent cells” where YAP is clearly nuclear and in which a cell growth inhibition is observed by using siRNA (NCI-H2052, SKOV-3, ACHN, A549) and the “YAP independent cells” where YAP is preferentially located in the cytoplasm and in which no inhibition of cell growth is observed by using a siRNA (SW620, Met-5a). […] After one day growth in the starvation medium, cells were incubated with compounds. The starting concentration was 30 μM and serial dilutions in DMSO and medium were performed until 0.1 μM to achieve a final DMSO concentration of 0.5%. The cells were then allowed to grow for 3 days, and then, EdU (Invitrogen, Molecular Probe) was added in each well at a final concentration of 10 μM and the cells were returned to the incubator for additional 24 h. Starvation medium was removed and 100 μl of PFA 4% containing Hoechst dye was adding in each well to fix the cells. Plates were then incubated at rt for 15 minutes, washed twice with PBS and the cells were permeabilized by adding 100 μl per well of triton-100 containing 0.3% BSA. After 20 minutes cells were washed with PBS and the EdU detection was performed according to the instructions of the manufacturer. Image acquisition was performed using the ImageXpress Micro and analysed using the MetaXpress software (Molecular Device).
(§2) Results were expressed as a percent of inhibition (%) of the cell proliferation values obtained with 0.5% DMSO treatment alone. The cellular response was determined by fitting the concentration response curves using a 3 parameter curve fit equation and determining the concentration that inhibited cell growth between 50% and 100%.

The test system of data set [2] is NCI-H2052 mesothelioma cell line. In words: Inhibition of malignant mesothelioma tumor cell growth (EdU proliferation). It is filed as cell-based. To be noted: NF2 mutated cell line, 0.1-30 μM, FIG. 1. As to the method:
as §1, §2

T1 sequence (P04386+P28347 fused, stated change not applied): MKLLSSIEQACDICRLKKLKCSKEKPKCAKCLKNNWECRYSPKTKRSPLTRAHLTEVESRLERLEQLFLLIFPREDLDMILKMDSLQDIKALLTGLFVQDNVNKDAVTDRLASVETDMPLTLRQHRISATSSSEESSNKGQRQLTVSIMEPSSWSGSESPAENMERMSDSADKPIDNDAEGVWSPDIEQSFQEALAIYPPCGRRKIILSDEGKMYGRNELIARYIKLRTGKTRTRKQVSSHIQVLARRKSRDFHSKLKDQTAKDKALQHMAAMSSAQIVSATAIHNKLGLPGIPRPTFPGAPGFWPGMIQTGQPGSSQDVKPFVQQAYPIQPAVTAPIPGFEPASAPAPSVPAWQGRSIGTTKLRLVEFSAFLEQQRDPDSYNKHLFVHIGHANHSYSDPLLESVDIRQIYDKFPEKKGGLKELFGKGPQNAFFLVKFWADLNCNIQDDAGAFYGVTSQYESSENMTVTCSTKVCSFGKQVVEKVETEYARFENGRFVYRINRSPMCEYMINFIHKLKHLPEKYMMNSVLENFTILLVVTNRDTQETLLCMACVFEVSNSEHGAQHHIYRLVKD

In turn, `Cc1ncc(/C=N/N(C)C2=NS(=O)(=O)c3ccccc32)s1` [Ex 118, N-methyl-N-[(E)-(2-methylthiazol-5-yl)methyleneamino]-1,1-dioxo-1,2-benzothiazol-3-amine] gave a melting point of 248 °C. In data set [1], this molecule displayed an IC50 of 3.97 µM.
For the molecule `CN(/N=C/c1ccc2[nH]c(=O)n(C3CCC3)c2c1)C1=NS(=O)(=O)c2ccccc21` [Ex 28, 3-cyclobutyl-5-[(E)-[(1,1-dioxo-1,2-benzothiazol-3-yl)-methyl-hydrazono]methyl]-1H-benzimidazol-2-one], in the data set with Met5A cell line, the “effect on proliferation of Met5A cell line” value (shortened to “effect on proliferation”) was “without showing any effect”. In addition, the “NCI-H2052 mesothelioma cell proliferation” value in data set [2] is given as “inhibited NCI-H2052 mesothelioma cell proliferation”. The same molecule registered an IC50 in data set [1] of 3.06 µM.
`CN(/N=C/c1ccc(F)c(OC(F)(F)F)c1)C1=NS(=O)(=O)c2ccccc21` [Ex 78, N-[(E)-[4-fluoro-3-(trifluoromethoxy)phenyl]methyleneamino]-N-methyl-1,1-dioxo-1,2-benzothiazol-3-amine] showed a melting point of 230 to 280 °C.
With `COc1cc(/C=N/N(C)C2=NS(=O)(=O)c3cc(B(O)O)ccc32)ccc1F` [Ex 50, [3-[[(E)-(4-fluoro-3-methoxy-phenyl)methyleneamino]-methyl-amino]-1,1-dioxo-1,2-benzothiazol-6-yl]boronic acid], the “effect on proliferation” value with Met5A cell line was “without showing any effect”. Also, the “NCI-H2052 mesothelioma cell proliferation” value in data set [2] is reported as “inhibited NCI-H2052 mesothelioma cell proliferation”. In addition, in data set [1], the half-inhibitory concentration (IC50) was 3.03 µM.
Molecule `CC1NC(=O)c2ccc(/C=N/N(C)C3=NS(=O)(=O)c4ccccc43)cc21` (centres unmarked) [Ex 31, 5-[(E)-[(1,1-dioxo-1,2-benzothiazol-3-yl)-methyl-hydrazono]methyl]-3-methyl-isoindolin-1-one] gave a melting point of more than 298 °C.
For the molecule `COc1cc(/C=N/N(C)C2=NS(=O)(=O)c3cc(B4OC(=O)CN(C)CC(=O)O4)ccc32)ccc1F` [Ex 68, 2-[3-[[(E)-(4-fluoro-3-methoxy-phenyl)methyleneamino]-methyl-amino]-1,1-dioxo-1,2-benzothiazol-6-yl]-6-methyl-1,3,6,2-dioxazaborocane-4,8-dione], the “effect on proliferation” value in the data set with Met5A cell line is “without showing any effect”. Further, the “NCI-H2052 mesothelioma cell proliferation” value in data set [2] was “inhibited NCI-H2052 mesothelioma cell proliferation”. In data set [1], this molecule came in with an IC50 of 4.5 µM.
Take `CN(/N=C/c1ccc2c(c1)C(C)(C)NC2=O)C1=NS(=O)(=O)c2ccccc21` [Ex 32, 5-[(E)-[(1,1-dioxo-1,2-benzothiazol-3-yl)-methyl-hydrazono]methyl]-3,3-dimethyl-isoindolin-1-one]: the melting point is more than 295 °C.
On to `COc1cc(/C=N/N(CCc2ccccc2)C2=NS(=O)(=O)c3ccccc32)ccc1F` [Ex 46, N-[(E)-(4-fluoro-3-methoxy-phenyl)methyleneamino]-1,1-dioxo-N-(2-phenylethyl)-1,2-benzothiazol-3-amine], for which the melting point fell in the range of 256 to 258 °C.
On the same count and under the same terms, with `CN(/N=C/c1ccc2[nH]nnc2c1)C1=NS(=O)(=O)c2ccccc21` [Ex 35, N-[(E)-1H-benzotriazol-5-ylmethyleneamino]-N-methyl-1,1-dioxo-1,2-benzothiazol-3-amine] the figure was 313 to 315 °C; with `CN(/N=C/c1cnc(N2CCOCC2)s1)C1=NS(=O)(=O)c2ccccc21` [Ex 7, N-methyl-N-[(E)-(2-morpholinothiazol-5-yl)methyleneamino]-1,1-dioxo-1,2-benzothiazol-3-amine], 281 to 300 °C.
On to `CCC1(CC)C(=O)Nc2ccc(/C=N/N(C)C3=NS(=O)(=O)c4ccccc43)cc21` [Ex 34, 5-[(E)-[(1,1-dioxo-1,2-benzothiazol-3-yl)-methyl-hydrazono]methyl]-3,3-diethyl-indolin-2-one], for which the melting point lay within 288 to 289 °C.
As to `COc1cc(/C=N/N(CC(C)(C)CO)C2=NS(=O)(=O)c3ccccc32)ccc1F` [Ex 108, 3-[(1,1-dioxo-1,2-benzothiazol-3-yl)-[(E)-(4-fluoro-3-methoxy-phenyl)methyleneamino]amino]-2,2-dimethyl-propan-1-ol], the melting point lay in the range of 207 to 208 °C.
`CN(/N=C/c1ccc(N2CCOCC2)cc1)C1=NS(=O)(=O)c2ccccc21` [Ex 3, N-methyl-N-[(E)-(4-morpholinophenyl)methyleneamino]-1,1-dioxo-1,2-benzothiazol-3-amine] came in with a melting point of 258 to 261 °C.
`CNC(=O)Cc1ccc(/C=N/N(C)C2=NS(=O)(=O)c3ccccc32)cc1OC` [Ex 20, 2-[4-[(E)-[(1,1-dioxo-1,2-benzothiazol-3-yl)-methyl-hydrazono]methyl]-2-methoxy-phenyl]-N-methyl-acetamide] yielded a melting point of 228 to 231 °C.
As for `COCCOc1ccc2c(c1)C(N(C)/N=C/c1ccc(F)c(OC)c1)=NS2(=O)=O` [Ex 56, N-[(E)-(4-fluoro-3-methoxy-phenyl)methyleneamino]-5-(2-methoxyethoxy)-N-methyl-1,1-dioxo-1,2-benzothiazol-3-amine], the melting point was 200 °C. In data set [1], this molecule registered an IC50 of 2.31 µM.

What is called IC50 is the midpoint of a concentration-inhibition curve. A high value points to lower potency. A word on the melting point: it is the temperature, or range, at which the solid turns liquid.
